Broadly, the IC50 is the concentration needed to halve the response being measured.

The assay concerns Wolbachia pipientis (wAlbB) in C6/36 (wAlbB) cells. Briefly: acumen high-throughput anti-Wolbachia assay. Format: cell-based. To be noted: C6/36, 168 h, read-out: anti-Wolbachia IC50 in the acumen assay.

SMILES strings stand for the structures.

Regarding `C[C@H]1c2cccc(O)c2C(=O)C2=C(O)[C@]3(O)C(=O)C(C(N)=O)=C(O)[C@@H](N(C)C)[C@@H]3[C@@H](O)[C@@H]21` [Doxycycline, doxycycline], the IC50 amounted to 17.8 nM.

These data come from article PMC6537165 (Slas Discovery, 2019).
